From publication PMC7288171, “Synergistic Effects of Thiosemicarbazides with Clinical Drugs against S. aureus” (Molecules, 2020)
≈ marks a conversion by molar mass, not a printed value.

Assays:
MRSA-1 = experiment: MIC, clinical isolate of S. aureus; type: cell-based; settings: Staphylococcus aureus; clinical isolate MRSA-1; read-out: MIC
Description: (§1) The antibacterial activity of the thiosemicarbazides 1–9 and antibiotics (amoxicillin, gentamicin, levofloxacin, linezolid, and vancomycin) was tested on the Gram-positive strains (Microbiologics, St. Cloud, MN, USA) (S. aureus ATCC 25923, S. aureus ATCC 6538, S. epidermidis ATCC 12228, B. subtilis ATCC 6633, B. cereus ATCC 10876, M. luteus ATCC 10240), the Gram-negative strains (Microbiologics, St. Cloud, MN, USA) (E. coli ATCC 25922, K. pneumoniae ATCC 13883, P. mirabilis ATCC 12453, P. aeruginosa ATCC 9027), and clinical isolates of S. aureus (Medical University of Lublin, Lublin, Poland) (MSSA-1, MSSA-2, MSSA-3, MSSA-4, MRSA-1).

MSSA-1 = experiment: MIC, clinical isolate of S. aureus; type: cell-based; settings: Staphylococcus aureus; clinical isolate MSSA-1; read-out: MIC
Description: as §1

MSSA-2 = experiment: MIC, clinical isolate of S. aureus; type: cell-based; settings: Staphylococcus aureus; clinical isolate MSSA-2; read-out: MIC
Description: as §1

MSSA-3 = experiment: MIC, clinical isolate of S. aureus; type: cell-based; settings: Staphylococcus aureus; clinical isolate MSSA-3; read-out: MIC
Description: as §1

MSSA-4 = experiment: MIC, clinical isolate of S. aureus; type: cell-based; settings: Staphylococcus aureus; clinical isolate MSSA-4; read-out: MIC
Description: as §1

MTT cytotoxicity assay = type: cell-based, human; settings: human, Hs27 foreskin fibroblast cells (ATCC CRL-1634), 25 µg/mL, 24 h, vehicle control = 100%
Description: (§2) A critical factor in research and development of new antibacterial agents is their abilities to selectively target bacterial cells without toxicity to mammalian cells. Thus, in order to test if antibacterial activity of title thiosemicarbazides is not due to their general toxicity, their effect on mammalian cell viability was assessed using human foreskin fibroblast Hs27 cells (CRL-1634) via MTT assay.
(§3) Cytotoxic properties of the compounds were evaluated using human foreskin fibroblast cells Hs27 (ATCC CRL-1634) (ATCC, Manassas, VA, USA) that were cultured in DMEM-high glucose (Sigma Aldrich, St. Louis, MO, USA). Medium was supplemented with 10% fetal bovine serum (FBS, Sigma Aldrich), 100 U/mL of penicillin, and […] of streptomycin (PenStrep, Sigma Aldrich, St. Louis, MO, USA). Cells were incubated at 37 °C in a humidified atmosphere of 5% CO2. Stock solutions of the tested compounds were prepared dissolving in a sterile dimethyl sulfoxide (DMSO) to the concentration of 50 mg/mL. The cells were seeded into 96-well sterile plates (Nunc) at a cell density of 1 × 10^5 cells/mL. After 24 h of incubation, the medium was removed from each well, and then cells were incubated for the next 24 h with tested compounds (in a fixed dose of 25 µg/mL) in DMEM-high glucose containing 2% FBS. Control cells were cultured only with medium containing 2% addition of FBS. Cytotoxicity of the compounds was evaluated using MTT assay, which is based on the conversion of 3-(4,5-dimethylthiazol-2-yl)-2,5- diphenyltetrazolium bromide (MTT) into dark-blue formazan crystals. Briefly, after 24-h incubation of cells with varying concentrations of the tested compounds, culture medium was removed from the plates. Cells were washed with PBS, and then 100 µL of medium containing 10% MTT solution (5 mg/mL) was added to each well. Cells were incubated for the next 3 h at 37 °C in an atmosphere of 5% CO2. Next, 100 µL (per well) of 10% sodium dodecyl sulfate (SDS) buffer solution was added to dissolve formazan crystals and after an overnight incubation the absorbance was measured at 570 nm using a microplate reader (Epoch, BioTek Instruments, Inc., Winooski, VT, USA).

[1] = test system: human foreskin fibroblast Hs27 cells (CRL-1634); experiment: MTT cytotoxicity assay; type: cell-based; settings: Homo sapiens, 24 h of treatment
Description: as §2, §3

S. aureus ATCC 25923 [2] = experiment: Checkerboard broth dilution synergy assay; type: cell-based
Description: The microdilution checkerboard method was used to evaluate the synergistic effects between the thiosemicarbazides 1–9 and antibiotics, which were determined as the fractional inhibitory concentration indices (FICIs). For these experiments, amoxicillin, gentamicin, levofloxacin, linezolid, and vancomycin were selected to represent the five antimicrobial classes most commonly used in clinical practice. In this way, a total of 45 combinations of thiosemicarbazide-amoxicillin, thiosemicarbazide-gentamicin, thiosemicarbazide-levofloxacin, thiosemicarbazide-linezolid, and thiosemicarbazide-vancomycin against S. aureus ATCC 25923 were tested to identify in vitro synergy effects.
Interaction of the thiosemicarbazides 1–9 in combination with amoxicillin, gentamicin, levofloxacin, linezolid or vancomycin against S. aureus ATCC 25923 were analyzed using the checkerboard broth dilution method to determine the fractional inhibitory concentration indices (FICIs), calculated as: FIC = MIC of drug A in combination/MIC of drug A alone + MIC of drug B in combination/MIC of drug B alone. The calculated FICIs were interpreted as synergistic (FIC ≤ 0.5), additive (0.5 < FIC < 1), indifferent (1 ≤ FIC < 4.0), or antagonistic (FIC ≥ 4.0). The checkerboard assay included ciprofloxacin-carvedilol combination as positive control, whereas cefuroxime in combination with 4-(4-bromophenyl)-1-(3-fluorobezoyl)thiosemicarbazide served as negative control. The Z-factor value for the bioassay was 0.683.

[3] = biological target: T1, S. aureus topoisomerase IV (Staphylococcus aureus, UniProt P0C1S7+P0C1U9); experiment: Topoisomerase IV decatenation assay; type: biochemical; settings: in words; 50 and 100 µM tested (Figures S1–S3)
T1 construct: purchased Inspiralis, Norwich, UK
Description: Inhibition of decatenation activity of S. aureus topoisomerase IV: The assay was performed using S. aureus topoisomerase IV decatenation kits (Inspiralis, Norwich, UK). Interlinked kDNA substrate (0.5 µg) was incubated with 1 unit of topoisomerase IV (Inspiralis, Norwich, UK), in the dedicated decatenation assay buffer supplied by the manufacturer, in the presence of varying concentrations of the test compounds. Reactions were carried out at 37 °C for 1 h and then terminated by the addition of equal volume of 2 × STOP Buffer and chloroform/iso-amyl alcohol. Samples were vortexed, centrifuged, and run through a 15 cm 1% agarose gel in TAE buffer for 1.5 h at 80 V. Gels were stained with ethidium bromide and visualized under UV light.

S. aureus ATCC 6538 = test system: S. aureus ATCC 6538; set-up: method as in PMID 25897586; settings: S. a. ATCC 6538; compounds 1–5; cited from earlier work
S. aureus ATCC 25923 [4] = test system: S. aureus ATCC 25923; set-up: method as in PMID 25897586; settings: S. a. ATCC 25923; compounds 1–5; cited from earlier work
[5] = test system: S. epidermidis ATCC 12228; set-up: method as in PMID 25897586; settings: S. e. ATCC 12228; compounds 1–5; cited from earlier work
B. subtilis ATCC 6633 = test system: B. subtilis ATCC 6633; set-up: method as in PMID 25897586; settings: B. s. ATCC 6633; compounds 1–5; cited from earlier work
B. cereus ATCC 10876 = test system: B. cereus ATCC 10876; set-up: method as in PMID 25897586; settings: B. c. ATCC 10876; compounds 1–5; cited from earlier work
M. luteus ATCC 10240 = test system: M. luteus ATCC 10240; set-up: method as in PMID 25897586; settings: M. l. ATCC 10240; compounds 1–5; cited from earlier work

MIC (MRSA-1) [µg/mL]	MIC (MSSA-1) [µg/mL]	MIC (MSSA-2) [µg/mL]	MIC (MSSA-3) [µg/mL]	MIC (MSSA-4) [µg/mL]	inhibitory action against topoisomerase IV [3]	Structure (SMILES)	viability at 24 h, 25 µg/mL (MTT cytotoxicity assay) [%]	IC50 [1] [µg/mL]	interaction in combination (S. aureus ATCC 25923 [2]; combination with amoxicillin)	interaction in combination (S. aureus ATCC 25923 [2]; combination with gentamicin)	interaction in combination (S. aureus ATCC 25923 [2]; combination with levofloxacin)	interaction in combination (S. aureus ATCC 25923 [2]; combination with linezolid)	interaction in combination (S. aureus ATCC 25923 [2]; combination with vancomycin)	MIC (S. aureus ATCC 6538) [µg/mL]	MIC (S. aureus ATCC 25923 [4]) [µg/mL]	MIC [5] [µg/mL]	MIC (B. subtilis ATCC 6633) [µg/mL]	MIC (B. cereus ATCC 10876) [µg/mL]	MIC (M. luteus ATCC 10240) [µg/mL]
125 (≈ 310 µM)	> 500	> 500	> 500	250 (≈ 621 µM)	no inhibitory effects	O=C(NC(=S)NNC(=O)c1cccc(Cl)c1Cl)c1ccccc1Cl [compound 3]	81	> 25	additively	additively	additively	additively	no interaction	15.63 (≈ 38.8 µM)	15.63 (≈ 38.8 µM)	7.81 (≈ 19.4 µM)	3.91 (≈ 9.71 µM)	3.91 (≈ 9.71 µM)	0.98 (≈ 2.43 µM)
> 500	> 500	> 500	> 500	500 (≈ 1240 µM)	–	O=C(NC(=S)NNC(=O)c1cccc(Cl)c1Cl)c1ccc(Cl)cc1 [compound 4]	80.7	> 25	additive	–	synergistic	additive	did not display any synergism nor additivity	15.63 (≈ 38.8 µM)	31.25 (≈ 77.6 µM)	7.81 (≈ 19.4 µM)	0.98 (≈ 2.43 µM)	3.91 (≈ 9.71 µM)	1.95 (≈ 4.84 µM)
125 (≈ 327 µM)	> 500	> 500	> 500	> 500	no inhibitory effects	Cc1ccccc1C(=O)NC(=S)NNC(=O)c1cccc(Cl)c1Cl [compound 1]	78.5	> 25	additive	no interactions	no interactions	additive	no interactions	15.63 (≈ 40.9 µM)	15.63 (≈ 40.9 µM)	7.81 (≈ 20.4 µM)	3.91 (≈ 10.2 µM)	3.91 (≈ 10.2 µM)	1.95 (≈ 5.1 µM)
250 (≈ 605 µM)	> 500	> 500	> 500	500 (≈ 1210 µM)	–	O=C(NC(=S)NNC(=O)c1cccc(Cl)c1Cl)c1ccc([N+](=O)[O-])cc1 [compound 5]	70.9	> 25	no interactions	no interactions	no interactions	synergistically	no interactions	1.95 (≈ 4.72 µM)	1.95 (≈ 4.72 µM)	1.95 (≈ 4.72 µM)	0.98 (≈ 2.37 µM)	0.98 (≈ 2.37 µM)	0.49 (≈ 1.19 µM)
